Assay results reported in ChEMBL document CHEMBL1201862, “PubChem BioAssay data set” (2004).
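Dose response: 5 concentrations. Exposure: 48 h. Format: 96-well plates. Endpoint: linear interpolation; highest concentration if not reached. GI50 marks 50% less growth.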 Calls of active or inactive are those of the source. Rule as the data show it: active = GI50 up to about 1.1 µM and inactive = higher.

Assays:
Test in all cases: inhibition of tumour cell growth, NCI panel, 48 h
[1] = test system: SK-MEL-5
[2] = test system: A549
[3] = test system: HCT-15
[4] = test system: A498
[5] = test system: NCI-H460
[6] = test system: OVCAR-8
[7] = test system: SF-268
[8] = test system: SK-MEL-28
[9] = test system: NCI/ADR-RES
[10] = test system: RPMI-8226
[11] = test system: SW-620
[12] = test system: HOP-62
[13] = test system: TK-10
[14] = test system: HCT-116
[15] = test system: HOP-92
[16] = test system: CAKI-1
[17] = test system: SR
[18] = test system: IGROV-1
[19] = test system: SNB-75
[20] = test system: CCRF-CEM

Row | Structure (SMILES) | GI50 [1] | GI50 [2] | GI50 [3] | GI50 [4] | GI50 [5] | GI50 [6] | GI50 [7] | GI50 [8] | GI50 [9] | GI50 [10] | GI50 [11] | GI50 [12] | GI50 [13] | GI50 [14] | GI50 [15] | GI50 [16] | GI50 [17] | GI50 [18] | GI50 [19] | GI50 [20]
1 | Oc1nc(S)nc2c1CN(CCCN1CCOCC1)CN2 | 31 µM (inactive) | 38.6 µM (inactive) | 32 µM | > 100 µM (inactive) | 25.9 µM (inactive) | 31 µM (inactive) | 23.1 µM (inactive) | > 100 µM (inactive) | 37.8 µM (inactive) | 26.9 µM (inactive) | 32 µM (inactive) | 30.9 µM (inactive) | 56.6 µM (inactive) | 34.4 µM (inactive) | 37.7 µM (inactive) | 30.4 µM (inactive) | 28.4 µM (inactive) | 40.6 µM (inactive) |  | 
2 | C=C1C(C)C2C(Cc3ccccc3)NC(=O)C23C(OC(C)=O)C=CC(C)(O)C(=O)C(C)C/C=C/C3C1O (stereo unspecified) | 0.76 µM (active) | 0.764 µM (active) |  |  | 0.258 µM (active) | 79.8 µM (inactive) | 1.45 µM (inactive) | 2.47 µM (inactive) | > 65.9 µM (inactive) | 5.98 µM (inactive) | 87.7 µM (inactive) | 0.0678 µM (active) | 0.505 µM (active) | 3.54 µM (inactive) | 0.569 µM (active) | 0.129 µM (active) | 3.3 µM (inactive) | 0.902 µM (active) | 0.0333 µM (active) | 4.24 µM (inactive)
3 | O=[N+]([O-])c1ccc(/C=N/Nc2nc3ccccc3[nH]2)o1 | 4.14 µM (inactive) | 12.2 µM (inactive) | 11.8 µM |  | 17.5 µM (inactive) | 16.7 µM (inactive) | 24.4 µM (inactive) | 8.91 µM (inactive) | 24.6 µM (inactive) | 2.85 µM (inactive) | 10.8 µM (inactive) | 15.8 µM (inactive) | 19.2 µM (inactive) | 14.8 µM (inactive) | 17.4 µM (inactive) | 15.1 µM (inactive) | 7.71 µM (inactive) | 12.6 µM (inactive) | 17.7 µM (inactive) | 8.39 µM (inactive)
4 | O=c1[nH]nc(-c2ccccc2)n1-n1cccc1 | > 100 µM (inactive) | > 100 µM (inactive) | > 100 µM | > 100 µM (inactive) | > 100 µM (inactive) | > 100 µM (inactive) | > 100 µM (inactive) | > 100 µM (inactive) | > 100 µM (inactive) | > 100 µM (inactive) | > 100 µM (inactive) | > 100 µM (inactive) | > 100 µM (inactive) | > 100 µM (inactive) |  | > 100 µM (inactive) | 9.29 µM (inactive) | > 100 µM (inactive) | > 100 µM (inactive) | 50.8 µM (inactive)
5 | COCc1nc(C#N)c(N)o1 | > 10 µM (inactive) | > 10 µM (inactive) | > 10 µM |  | > 10 µM (inactive) | > 10 µM (inactive) | > 10 µM (inactive) | > 10 µM (inactive) | > 10 µM (inactive) | > 10 µM (inactive) | > 10 µM (inactive) | > 10 µM (inactive) | > 10 µM (inactive) | > 10 µM (inactive) | > 10 µM (inactive) | > 10 µM (inactive) | > 10 µM (inactive) | > 10 µM (inactive) | > 10 µM (inactive) | > 10 µM (inactive)
6 | NS(=O)(=O)c1nnc(NS(=O)(=O)c2ccc([N+](=O)[O-])cc2)s1 | 69.2 µM (inactive) | > 100 µM (inactive) | > 100 µM | > 100 µM (inactive) | > 100 µM (inactive) | > 100 µM (inactive) | > 100 µM (inactive) | > 100 µM (inactive) | > 100 µM (inactive) | 21.4 µM (inactive) | > 100 µM (inactive) | > 100 µM (inactive) | > 100 µM (inactive) | > 100 µM (inactive) | > 100 µM (inactive) | > 100 µM (inactive) | 32.7 µM (inactive) | > 100 µM (inactive) | > 100 µM (inactive) | 
7 | COc1ccc(/C=C2\N=C(SC)N(CN3CCCCC3)C2=O)cc1 | > 100 µM (inactive) | > 100 µM (inactive) | > 100 µM | 42.4 µM (inactive) |  | > 100 µM (inactive) | > 100 µM (inactive) | > 100 µM (inactive) | > 100 µM (inactive) | > 100 µM (inactive) | > 100 µM (inactive) | 58.7 µM (inactive) | > 100 µM (inactive) | > 100 µM (inactive) | 0.347 µM (active) |  | > 100 µM (inactive) | > 100 µM (inactive) | > 100 µM (inactive) | 
8 | CN(C1=NCCO1)c1cccc2c1CCCC2 | 2.11 µM (inactive) | 4.26 µM (inactive) | 3.48 µM | 3.71 µM (inactive) | 4.01 µM (inactive) | 5.3 µM (inactive) | 5.33 µM (inactive) | 6.01 µM (inactive) | 3.6 µM (inactive) | 5.93 µM (inactive) | > 10 µM (inactive) | 7.08 µM (inactive) | 3.23 µM (inactive) | 2.99 µM (inactive) |  | 3.6 µM (inactive) | 1.21 µM (inactive) | 2.75 µM (inactive) |  | 1.15 µM (inactive)
9 | N=C(N)NS(=O)(=O)c1ccc(NNC(=O)c2cccc3c(O)c4ccccc4nc23)cc1 | 17.1 µM (inactive) | 38.7 µM (inactive) | 23 µM |  | 20.6 µM (inactive) | 26.1 µM (inactive) | 33.7 µM (inactive) | 26.2 µM (inactive) | 38.3 µM (inactive) | 37.2 µM (inactive) | 32.7 µM (inactive) | 22 µM (inactive) | 44.8 µM (inactive) | 24.5 µM (inactive) | 25.3 µM (inactive) | 34.6 µM (inactive) | 35.6 µM (inactive) | 24.9 µM (inactive) | 30.7 µM (inactive) | 34.4 µM (inactive)
10 | Cc1nn(C(=O)c2ccncc2)c2c1C(c1ccc([N+](=O)[O-])cc1)SC(=N)N2 (stereo unspecified) | > 100 µM (inactive) | > 100 µM (inactive) | > 100 µM | > 100 µM (inactive) | > 100 µM (inactive) | > 100 µM (inactive) | > 100 µM (inactive) | > 100 µM (inactive) | > 100 µM (inactive) | > 100 µM (inactive) | > 100 µM (inactive) | > 100 µM (inactive) | > 100 µM (inactive) | > 100 µM (inactive) | > 100 µM (inactive) |  | > 100 µM (inactive) | > 100 µM (inactive) | > 100 µM (inactive) | > 100 µM (inactive)
11 | Nc1c(C(=O)O)c2ccc([N+](=O)[O-])cc2c(=O)n1-c1nc2ccccc2s1 | > 100 µM (inactive) | > 100 µM (inactive) | > 100 µM | > 100 µM (inactive) | > 100 µM (inactive) | > 100 µM (inactive) | > 100 µM (inactive) | > 100 µM (inactive) | > 100 µM (inactive) | > 100 µM (inactive) | > 100 µM (inactive) | > 100 µM (inactive) |  | > 100 µM (inactive) |  | > 100 µM (inactive) | > 100 µM (inactive) | > 100 µM (inactive) | > 100 µM (inactive) | > 100 µM (inactive)
12 | Fc1ccc2c(c1)nc1n2C(c2c(F)cccc2F)SC1 (stereo unspecified) | 21.8 µM (inactive) | 48.5 µM (inactive) | 38.3 µM | 71.8 µM (inactive) | 37 µM (inactive) | 37.1 µM (inactive) | 53.2 µM (inactive) | > 100 µM (inactive) | 27.1 µM (inactive) | 78.9 µM (inactive) | 69.3 µM (inactive) | 66.7 µM (inactive) | 46.7 µM (inactive) | 25.6 µM (inactive) | 26.2 µM (inactive) | 32.5 µM (inactive) | 18.1 µM (inactive) | 64.9 µM (inactive) | 28.2 µM (inactive) | 
13 | CCOC1CC(C)N(C(=O)c2ccccc2)O1 (stereo unspecified) | > 100 µM (inactive) | > 100 µM (inactive) |  | > 100 µM (inactive) | > 100 µM (inactive) | > 100 µM (inactive) | > 100 µM (inactive) | > 100 µM (inactive) | > 100 µM (inactive) |  | > 100 µM (inactive) | > 100 µM (inactive) | > 100 µM (inactive) | > 100 µM (inactive) | 31.7 µM (inactive) |  | > 100 µM (inactive) | > 100 µM (inactive) |  | > 100 µM (inactive)
14 | CC(C)(C)[Si](C)(C)OCC1CCC(n2cnc3c(=O)[nH]cnc32)O1 (stereo unspecified) | 32.5 µM (inactive) | > 100 µM (inactive) | > 100 µM |  | > 100 µM (inactive) | 94.4 µM (inactive) | > 100 µM (inactive) | > 100 µM (inactive) | 45.6 µM (inactive) | 65.5 µM (inactive) | > 100 µM (inactive) | > 100 µM (inactive) | > 100 µM (inactive) | > 100 µM (inactive) | > 100 µM (inactive) | > 100 µM (inactive) | 35.3 µM (inactive) | > 100 µM (inactive) | 20.3 µM (inactive) | 68.5 µM (inactive)
15 | CCCCCCCCCCCCCC/C(C(=O)O)=C(\C)C(=O)O | > 100 µM (inactive) | > 100 µM (inactive) | > 100 µM | > 100 µM (inactive) | > 100 µM (inactive) | > 100 µM (inactive) | > 100 µM (inactive) | > 100 µM (inactive) | 97.7 µM (inactive) | 40.4 µM (inactive) | > 100 µM (inactive) | > 100 µM (inactive) | > 100 µM (inactive) | > 100 µM (inactive) | > 100 µM (inactive) |  | 41.5 µM (inactive) | > 100 µM (inactive) | > 100 µM (inactive) | > 100 µM (inactive)
